Reference: ChEMBL document CHEMBL1201862, “PubChem BioAssay data set” (2004)
Values belong to the molecule of their own block, whether it stands above or below them. Calls of active or inactive are those of the source.

How the values were obtained:
[1] = molecular target: NAD-dependent protein deacylase sirtuin-5, mitochondrial (Homo sapiens, UniProt Q9NXA8); experiment: sirtuin-5 deacylation blockers, concentration series – biochemical, fluorescence imaging, cherry-pick, set 5, dose response (AID 720591);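 further: desuccinylation of succinyl peptide AMC substrate read as fluorescence after trypsin release; potency of inhibitors that lower fluorescence and may act on trypsin instead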
[2] = molecular target: Potassium channel subfamily K member 9 (Homo sapiens, UniProt Q9NPC2); experiment: KCNK9 flux blockade, concentration-response – cell-based, FluxOR thallium flux, selectivity assay for TASK1 inhibitor project, SAR follow-up (AID 652211); format: functional;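 further: potency is for inhibitors of the channel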
[3] = molecular target: Potassium channel subfamily K member 3 (Homo sapiens, UniProt O14649); experiment: inhibition of human KCNK3 channel flux – CHO cells, FluxOR thallium flux, SAR follow-up (AID 652212); format: functional
[4] = DRD fibroblast viability loss – cell-based, non-viral oncogenic, luminescence, dose response (AID 1934); format: functional; details: Homo sapiens
[5] = molecular target: Transthyretin (Homo sapiens, UniProt P02766); experiment: Luminescence-based cell-based high throughput dose response assay to identify activators of Transthyretin (TTR) transcription.; format: functional
[6] = tested on: BJ; experiment: cells; format: functional, cell-based; details: Homo sapiens
[7] = tested on: BJ; experiment: growth inhibition of engineered Ras-driven BJ cells – cell-based, alamar blue fluorescence, cherrypicked samples, dose response (AID 2631); format: functional; details: Homo sapiens;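 further: confirmatory dose-response assay in RAS-dependent BJ fibroblasts engineered with TERT, LT and ST, with cytotoxicity read by fluorescence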
[8] = tested on: BJ; experiment: BJ-TERT fibroblast viability loss – cell-based, RAS-independent, luminescence, dose response (AID 1933); format: functional; details: Homo sapiens
[9] = molecular target: T1, Short transient receptor potential channel 4 (Mus musculus, UniProt Q9QUQ5); experiment: block of DAMGO-driven TRPC4 calcium entry – cell-based, HEK293 TRPC4/mu-opioid, Fluo-4 calcium, dose response (AID 434942); format: functional;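 further: potency of inhibitors blocking the TRPC4 calcium response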
T1 sequence (Q9QUQ5 whole entry): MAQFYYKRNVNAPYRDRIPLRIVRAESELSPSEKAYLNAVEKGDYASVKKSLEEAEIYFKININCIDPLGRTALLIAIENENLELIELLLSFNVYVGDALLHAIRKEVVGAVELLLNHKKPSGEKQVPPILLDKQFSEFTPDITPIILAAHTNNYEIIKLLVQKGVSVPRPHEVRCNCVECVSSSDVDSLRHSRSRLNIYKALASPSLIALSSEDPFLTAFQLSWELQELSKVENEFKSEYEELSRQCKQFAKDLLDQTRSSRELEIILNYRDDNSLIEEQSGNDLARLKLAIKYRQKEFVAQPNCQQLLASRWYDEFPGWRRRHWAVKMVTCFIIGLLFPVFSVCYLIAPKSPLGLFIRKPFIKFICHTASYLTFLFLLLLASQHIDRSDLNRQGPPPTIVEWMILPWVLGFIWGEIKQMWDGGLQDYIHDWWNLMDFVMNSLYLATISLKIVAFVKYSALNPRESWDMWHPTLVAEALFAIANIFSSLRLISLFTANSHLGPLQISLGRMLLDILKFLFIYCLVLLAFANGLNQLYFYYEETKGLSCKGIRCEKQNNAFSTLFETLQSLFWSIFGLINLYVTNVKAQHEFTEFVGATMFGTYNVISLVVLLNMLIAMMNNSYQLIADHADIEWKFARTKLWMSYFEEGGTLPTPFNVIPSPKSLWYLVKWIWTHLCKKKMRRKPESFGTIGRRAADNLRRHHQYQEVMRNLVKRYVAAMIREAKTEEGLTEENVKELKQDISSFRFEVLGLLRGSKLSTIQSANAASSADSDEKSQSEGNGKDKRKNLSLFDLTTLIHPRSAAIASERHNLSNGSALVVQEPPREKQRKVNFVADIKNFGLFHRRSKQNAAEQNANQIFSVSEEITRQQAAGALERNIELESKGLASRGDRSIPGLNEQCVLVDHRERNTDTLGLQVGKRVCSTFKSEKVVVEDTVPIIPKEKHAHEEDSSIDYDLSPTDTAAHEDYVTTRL

[10] = tested on: BJ; experiment: BJ-TERT-LT-ST fibroblast viability loss – cell-based, RAS-independent, luminescence, dose response (AID 1935); format: functional; details: Homo sapiens;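 further: BJ fibroblasts immortalized with TERT plus LT and ST oncogenes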
[11] = molecular target: G-protein coupled receptor 183 (Homo sapiens, UniProt P32249); experiment: SAR confirmation of small molecule antagonists of the EBI2 receptor via a luminescent beta-arrestin assa.; format: functional
[12] = A2780 cell killing – plate reader, dry powder samples, cytotoxicity control, dose response (AID 743046); format: functional, cell-based
[13] = OVCAR-3 cell viability loss – plate reader, dry powder samples, PAX8 inhibitor project, dose response (AID 743044); format: functional, cell-based
[14] = OVCAR8 cell viability loss – plate reader, dry powder samples, PAX8 project, dose response (AID 743197); format: functional, cell-based; details: OVCAR-8
[15] = molecular target: Paired box protein Pax-8 (Homo sapiens, UniProt Q06710); experiment: PAX8 transcriptional activity inhibition in RMG-I – RMG-I cells, luciferase, cherry-pick, dose response (AID 687027); format: functional, cell-based;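 further: luciferase reporter driven by Pax8 target thyroperoxidase promoter measured by SteadyGlo luminescence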
[16] = NIH3T3 cell viability loss – ATP luminescence, mouse fibroblasts, counter-screen, dose response (AID 2010); format: functional, cell-based;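 further: cells exposed to compound for about 90 hours before reading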
[17] = Trypanosoma cruzi growth suppression in host cells – NIH3T3 host cells, beta-gal luminescence, confirmation (AID 2044); format: functional, cell-based;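 further: intracellular parasites grown in NIH/3T3 mouse fibroblasts as host cells; luminescent beta-galactosidase reporter signal from transgenic T. cruzi replicating inside host cells; inhibitors lower the luminescence signal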
[18] = viability loss in THP-1 monocytes – THP-1 cells, cytotoxicity control for Vif-APOBEC3G degradation inhibitor project, dose response (AID 1117359); format: functional; details: THP-1
[19] = A549 cell cytotoxicity, dose response, cytotoxicity control, plate reader, cherry-pick, antagonist series (AID 743412); format: functional, cell-based
[20] = viability loss in HEK293 cells – cell-based, plate reader, cherry-picked samples, cytotoxicity control, dose response (AID 743446); format: functional
[21] = blockade of melanocortin 4 receptor signaling – cell-based, plate reader, cherry pick, counter-screen for LGR2 antagonist project, dose response (AID 743444); format: functional;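 further: transfected HEK 293 cells stimulated with alpha-MSH peptide; potency of inhibitors of the alpha-MSH evoked signal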
[22] = toxicity toward HepG2 liver cells – cell-based, plate reader, cherry-pick, antagonist series, cytotoxicity control, dose response (AID 743416); format: functional
[23] = blockers of bursicon-stimulated LGR2 cAMP reporter – cell-based, HEK293, CRE-luciferase reporter, cherry pick, set 2, dose response (AID 743343); format: functional;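 further: transfected cells were stimulated with diluted bursicon conditioned medium after compound addition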
[24] = molecular target: T2, DNA repair and recombination protein RAD54-like (Homo sapiens, UniProt Q92698); experiment: RAD54 Holliday junction migration blockers – biochemical, fluorescence, cherry-picked samples, dose series, confirmation (AID 651657); format: functional
T2 sequence (Q92698 whole entry): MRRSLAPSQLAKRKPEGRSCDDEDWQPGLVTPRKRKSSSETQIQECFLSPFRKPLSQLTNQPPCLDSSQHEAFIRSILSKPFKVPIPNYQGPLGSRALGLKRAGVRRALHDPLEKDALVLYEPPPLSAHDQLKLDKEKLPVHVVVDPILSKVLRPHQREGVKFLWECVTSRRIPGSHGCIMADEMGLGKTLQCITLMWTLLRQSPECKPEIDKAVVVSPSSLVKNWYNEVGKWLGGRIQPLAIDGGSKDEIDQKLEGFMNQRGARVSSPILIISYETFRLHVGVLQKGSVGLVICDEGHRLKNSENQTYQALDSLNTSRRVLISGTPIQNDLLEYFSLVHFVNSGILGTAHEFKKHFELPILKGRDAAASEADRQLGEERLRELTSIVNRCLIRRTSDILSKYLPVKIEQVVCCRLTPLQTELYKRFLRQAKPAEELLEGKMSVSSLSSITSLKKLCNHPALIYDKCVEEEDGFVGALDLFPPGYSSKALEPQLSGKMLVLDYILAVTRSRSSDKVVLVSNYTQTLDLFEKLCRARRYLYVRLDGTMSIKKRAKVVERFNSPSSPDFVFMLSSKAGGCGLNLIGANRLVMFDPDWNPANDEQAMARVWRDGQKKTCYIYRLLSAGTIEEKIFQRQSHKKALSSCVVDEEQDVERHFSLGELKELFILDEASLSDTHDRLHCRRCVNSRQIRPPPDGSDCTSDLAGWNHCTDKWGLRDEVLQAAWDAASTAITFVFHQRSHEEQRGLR

[25] = molecular target: T3, DNA repair protein RAD52 homolog (Homo sapiens, UniProt P43351); format: functional, biochemical
T3 sequence (P43351 whole entry): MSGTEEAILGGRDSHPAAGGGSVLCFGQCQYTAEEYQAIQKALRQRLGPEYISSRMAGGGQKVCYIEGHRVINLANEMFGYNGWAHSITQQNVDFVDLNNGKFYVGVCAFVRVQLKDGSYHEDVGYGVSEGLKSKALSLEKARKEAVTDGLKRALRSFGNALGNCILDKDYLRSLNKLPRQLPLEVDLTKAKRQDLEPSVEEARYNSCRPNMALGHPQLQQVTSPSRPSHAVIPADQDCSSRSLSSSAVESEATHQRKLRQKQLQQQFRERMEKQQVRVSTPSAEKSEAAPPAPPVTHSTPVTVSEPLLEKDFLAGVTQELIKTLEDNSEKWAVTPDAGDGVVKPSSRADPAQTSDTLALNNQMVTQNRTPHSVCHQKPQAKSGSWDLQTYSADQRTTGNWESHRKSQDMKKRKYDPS

[26] = tested on: INS1; experiment: INS-1E survival protection against cytokine death – cell-based, luminescence, retest, dose response (AID 449756); format: functional; details: Rattus norvegicus;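 further: cell death triggered by IL-1 beta plus TNF-alpha plus IFN-gamma mixture; protective hits raise ATP signal compared with cytokine alone wells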
[27] = tested on: HEK293; experiment: viability loss in HEK293T cells – cell-based, ATP luminescence, cherry-pick samples, cytotoxicity control, dose response (AID 687005); format: functional; details: Homo sapiens;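 further: cells exposed to compound for 48 hours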
[28] = HEK293 Cytotoxicity Assay Measured in Cell-Based System Using Plate Reader - 7071-01_Inhibitor_Dose_CherryPick_Activity_Set2.; format: functional
[29] = molecular target: Kallikrein-7 (Homo sapiens, UniProt P49862); experiment: Fluorescence Intensity-based biochemical primary high throughput dose response assay to identify activators of kallikrein-7 (K7) zymogen.
Sequence of Kallikrein-7 (P49862 whole entry): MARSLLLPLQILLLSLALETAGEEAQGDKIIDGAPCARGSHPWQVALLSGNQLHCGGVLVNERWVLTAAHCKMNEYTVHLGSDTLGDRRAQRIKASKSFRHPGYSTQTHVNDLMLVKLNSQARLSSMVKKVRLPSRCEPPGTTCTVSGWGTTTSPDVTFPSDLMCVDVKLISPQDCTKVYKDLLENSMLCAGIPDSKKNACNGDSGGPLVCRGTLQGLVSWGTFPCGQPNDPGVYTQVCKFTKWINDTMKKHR

Sequence of NAD-dependent protein deacylase sirtuin-5, mitochondrial (Q9NXA8 whole entry): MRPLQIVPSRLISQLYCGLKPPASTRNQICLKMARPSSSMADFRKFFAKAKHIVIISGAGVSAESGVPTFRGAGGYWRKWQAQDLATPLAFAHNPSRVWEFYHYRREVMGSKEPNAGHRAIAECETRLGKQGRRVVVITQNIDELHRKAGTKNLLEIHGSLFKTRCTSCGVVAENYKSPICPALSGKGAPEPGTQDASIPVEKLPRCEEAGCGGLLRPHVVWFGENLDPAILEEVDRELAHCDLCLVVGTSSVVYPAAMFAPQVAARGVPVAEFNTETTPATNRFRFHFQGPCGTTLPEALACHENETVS
Sequence of G-protein coupled receptor 183 (P32249 whole entry): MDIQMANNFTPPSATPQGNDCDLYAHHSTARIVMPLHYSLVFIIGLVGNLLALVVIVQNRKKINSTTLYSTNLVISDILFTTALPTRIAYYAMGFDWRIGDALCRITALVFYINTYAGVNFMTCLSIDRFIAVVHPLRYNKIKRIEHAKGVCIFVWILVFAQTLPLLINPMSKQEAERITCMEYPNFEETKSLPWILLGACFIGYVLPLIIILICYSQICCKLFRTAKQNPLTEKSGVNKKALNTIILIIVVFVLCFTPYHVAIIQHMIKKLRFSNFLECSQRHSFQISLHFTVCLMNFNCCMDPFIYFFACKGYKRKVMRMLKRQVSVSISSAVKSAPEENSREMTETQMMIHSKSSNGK
Sequence of Paired box protein Pax-8 (Q06710 whole entry): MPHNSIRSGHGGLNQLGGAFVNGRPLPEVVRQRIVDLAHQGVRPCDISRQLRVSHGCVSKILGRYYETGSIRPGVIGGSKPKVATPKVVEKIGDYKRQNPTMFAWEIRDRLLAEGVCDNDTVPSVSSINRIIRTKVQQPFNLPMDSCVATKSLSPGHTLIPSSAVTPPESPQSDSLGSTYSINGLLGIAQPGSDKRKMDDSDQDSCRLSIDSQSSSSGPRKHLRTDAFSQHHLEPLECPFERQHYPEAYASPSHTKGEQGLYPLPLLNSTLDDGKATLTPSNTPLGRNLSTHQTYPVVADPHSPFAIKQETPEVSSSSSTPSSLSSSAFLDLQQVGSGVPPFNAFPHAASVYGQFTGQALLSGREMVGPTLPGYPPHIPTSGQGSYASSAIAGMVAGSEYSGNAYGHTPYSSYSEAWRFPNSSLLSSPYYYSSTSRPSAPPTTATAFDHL
Sequence of Potassium channel subfamily K member 3 (O14649 whole entry): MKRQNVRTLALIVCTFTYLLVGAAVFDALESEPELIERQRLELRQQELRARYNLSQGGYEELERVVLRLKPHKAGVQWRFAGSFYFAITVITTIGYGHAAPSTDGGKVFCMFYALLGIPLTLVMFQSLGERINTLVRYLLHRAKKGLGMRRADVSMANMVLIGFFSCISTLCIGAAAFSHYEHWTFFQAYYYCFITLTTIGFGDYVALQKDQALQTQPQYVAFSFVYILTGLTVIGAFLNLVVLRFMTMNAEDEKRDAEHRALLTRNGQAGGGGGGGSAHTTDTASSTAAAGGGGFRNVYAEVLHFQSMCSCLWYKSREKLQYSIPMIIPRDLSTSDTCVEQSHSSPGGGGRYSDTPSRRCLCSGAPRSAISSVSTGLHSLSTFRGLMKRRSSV
Sequence of Potassium channel subfamily K member 9 (Q9NPC2 whole entry): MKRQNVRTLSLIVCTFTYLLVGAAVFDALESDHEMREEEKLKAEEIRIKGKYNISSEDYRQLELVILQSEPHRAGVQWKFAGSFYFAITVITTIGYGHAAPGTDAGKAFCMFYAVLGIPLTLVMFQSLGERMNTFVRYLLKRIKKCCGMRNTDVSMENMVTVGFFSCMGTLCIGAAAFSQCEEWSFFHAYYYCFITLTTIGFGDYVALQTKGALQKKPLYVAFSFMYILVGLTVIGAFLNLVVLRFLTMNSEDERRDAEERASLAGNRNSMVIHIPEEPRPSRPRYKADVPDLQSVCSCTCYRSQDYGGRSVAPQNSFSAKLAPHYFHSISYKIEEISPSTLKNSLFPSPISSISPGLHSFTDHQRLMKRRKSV

- AC50 [1]: > 30 µM (inactive)
SMILES: CCCCCCCCN1C(=O)[C@H](CC(=O)NCCCN2CCCC2=O)C[C@@]2(C(=O)OC)CC(C)(C)CC=C12

- IC50 [2]: 2.63 µM (active)
- IC50 [3]: 0.084 µM (active)
SMILES: CCOc1ccccc1NC(=O)c1cccc(NC(=O)c2ccccc2Cl)c1

- IC50 [11]: 0.0468 µM (active)
SMILES: CC(C)(C)c1ccc(S(=O)(=O)N2CCN(C(=O)/C=C/c3ccc(Cl)c(Cl)c3)CC2)cc1

- AC50 [1]: > 30 µM (inactive)
SMILES: O=C(Cn1cnc(S(=O)(=O)N2CCCC2)c1)Nc1cccc(Br)c1

- IC50 [11]: 0.0287 µM (active)
SMILES: O=C(/C=C/c1ccc(F)cc1)N1CCN(S(=O)(=O)Cc2ccccc2)CC1

Continued, molecule first:

SMILES: CN(C)CC(CCC(CN(C)C)C(O)(c1ccccc1)c1ccccc1)C(O)(c1ccccc1)c1ccccc1 (configuration not stated)
- EC50 [4]: 5.81 µM (active)
- EC50 [5]: > 167 µM (inactive)
- EC50 [6]: 11.6 µM (active)
- EC50 [7]: 2.13 µM (active)
- EC50 [8]: 4.97 µM (inconclusive)
- EC50 [9]: 1.68 µM (active)
- EC50 [10]: 5.82 µM (inconclusive)

SMILES: C[C@H](CO)N1C[C@H](C)[C@H](CN(C)Cc2ccc(C(F)(F)F)cc2)OCCCC[C@H](C)Oc2ccc(NC(=O)Nc3ccccc3)cc2C1=O
- AC50 [12]: 11.8 µM (active)
- AC50 [13]: 27.6 µM (active)
- AC50 [14]: 30.7 µM (active)
- AC50 [15]: 8.44 µM (active)

SMILES: O=[N+]([O-])c1ccc(/C=N/Nc2nc(N3CCCC3)nc(N3CCCC3)n2)o1
- EC50 [16]: > 60 µM (not active)
- EC50 [17]: 0.563 µM (active)
- CC50 [18]: > 40 µM (active)

SMILES: NC(=O)c1ccsc1NC(=O)c1ccc(N2CCCC2=O)cc1
- AC50 [19]: 50.9 µM (active)
- AC50 [20]: > 52 µM (inactive)
- AC50 [21]: 16.5 µM (active)
- AC50 [22]: > 52 µM (inactive)
- AC50 [23]: 10.5 µM (active)

SMILES: COc1ccc(CCNc2c3ccccc3nc3ccccc23)cc1OC
- EC50 [5]: > 167 µM (inactive)
- AC50 [24]: 7.87 µM (active)
- AC50 [25]: 6.38 µM (active)
- AC50 [26]: 4.5 µM (active)

SMILES: CCS(=O)(=O)N1CCCCN2[C@H](C1)[C@@H](c1ccc(-c3ccc(C#N)cc3)cc1)[C@@H]2CO
- AC50 [27]: 18.6 µM (active)
- AC50 [28]: 18.6 µM (active)

SMILES: CN1C(=O)c2ccccc2N(C)C1c1ccc(F)cc1 (configuration not stated)
- EC50 [29]: > 69.5 µM (inactive)
